The subject of data set [1] is Corn Earworm (CEW) (Helicoverpa zea). As to the kind of experiment: Bioassay on corn earworm (CEW), 128-well diet tray assay, percent mortality. It is filed as in vivo. The following applies: Helicoverpa zea, 50 μg/cm^2. The procedure: (§1) Certain molecules disclosed in this document were tested against BAW and CEW using procedures described in the following examples. In the reporting of the results, the “BAW & CEW Rating Table” was used (See Table Section).
Bioassays on CEW (Helicoverpa zea)
Bioassays on CEW were conducted using a 128-well diet tray assay. One to five second instar CEW larvae were placed in each well (3 mL) of the diet tray that had been previously filled with 1 mL of artificial diet to which 50 μg/cm^2 of the test compound (dissolved in 50 μL of 90:10 acetone-water mixture) had been applied (to each of eight wells) and then allowed to dry. Trays were covered with a clear self-adhesive cover and held at 25° C., 14:10 light-dark for five to seven days. Percent mortality was recorded for the larvae in each well; activity in the eight wells was then averaged. The results are indicated in the table entitled “Table 5: Biological Results” (See Table Section).

Data set [2] concerns Beet Armyworm (BAW) (Spodoptera exigua). As to the kind of experiment: Bioassay on beet armyworm (BAW), 128-well diet tray assay, percent mortality. It is filed as in vivo. The following applies: Spodoptera exigua, 50 μg/cm^2. The procedure: as §1
Bioassays on BAW (Spodoptera exigua)
Bioassays on BAW were conducted using a 128-well diet tray assay. One to five second instar BAW larvae were placed in each well (3 mL) of the diet tray that had been previously filled with 1 mL of artificial diet to which 50 μg/cm^2 of the test compound (dissolved in 50 μL of 90:10 acetone-water mixture) had been applied (to each of eight wells) and then allowed to dry. Trays were covered with a clear self-adhesive cover and held at 25° C., 14:10 light-dark for five to seven days. Percent mortality was recorded for the larvae in each well; activity in the eight wells was then averaged. The results are indicated in the table entitled “Table 5: Biological Results” (See Table Section).

In data set [3] the test system is Green Peach Aphid (GPA) (Myzus persicae). Kind of data set: Bioassay on green peach aphid (GPA), foliar spray on cabbage seedlings, corrected % control. It is filed as in vivo. Particulars: 72 h, read-out: % Mortality GPA 200 ppm. How it is done: Certain molecules disclosed in this document were tested against GPA using procedures described in the following example. In the reporting of the results, the “GPA Rating Table” was used (See Table Section).
Cabbage seedlings grown in 3-inch pots, with 2-3 small (3-5 cm) true leaves, were used as test substrate. The seedlings were infested with 20-50 GPA (wingless adult and nymph stages) one day prior to chemical application. Four pots with individual seedlings were used for each treatment. Test compounds (2 mg) were dissolved in 2 mL of acetone/methanol (1:1) solvent, forming stock solutions of 1000 ppm test compound. […] A hand-held aspirator-type sprayer was used for spraying a solution to both sides of […] leaves until runoff. Reference plants (solvent check) were sprayed with the diluent only containing 20% by volume of acetone/methanol (1:1) solvent. Treated plants were held in a holding room for three days at approximately 25° C. and ambient relative humidity (RH) prior to grading. Evaluation was conducted by counting the number of live aphids per plant under a microscope.
Corrected % Control=100*(X−Y)/X • where • X=No. of live aphids on solvent check plants and • Y=No. of live aphids on treated plants
The results are indicated in the table entitled “Table 5: Biological Results” (See Table Section).

Consider `CCC(C)c1ccccc1N1/C(=N/N=C/c2ccc(-c3ncn(-c4ccc(OC(F)(F)F)cc4)n3)cc2)SCC1(C)O` (stereo not drawn) [Compound 243C], for which the pest or weed control at 50 µg/cm2, 50 µg/cm2 in data set [1] and in data set [2] was 50 to 100% in each case. Moreover, in data set [3], the pest or weed control at 200 ppm fell in the range of 0 to 80%.
On to `COc1ccc(N2/C(=N/N=C/c3ccc(-c4ncn(-c5ccc(OC(F)(F)F)cc5)n4)cc3)SCC2(C)O)c(C)c1` (stereo not drawn) [Compound 245C], for which the pest or weed control at 50 µg/cm2, 50 µg/cm2 in data set [1] and in data set [2] was 50 to 100% each time. In data set [3], the pest or weed control at 200 ppm lay in the range of 0 to 80%.
For `Cc1ccccc1N1/C(=N/N=C/c2ccc(-c3ncn(-c4ccc(OC(F)(F)F)cc4)n3)cc2)SCC1(C)O` (stereo not drawn) [Compound 248C], the pest or weed control at 50 µg/cm2, 50 µg/cm2 in data set [1] and in data set [2] was 50 to 100% throughout. Also, the pest or weed control at 200 ppm in data set [3] lay within 0 to 80%.
Turning to `CC(C)c1cccc(F)c1N1/C(=N/N=C/c2ccc(-c3ncn(-c4ccc(OC(F)(F)F)cc4)n3)cc2)SCC1(C)O` (stereo not drawn) [Compound 250C], the pest or weed control at 50 µg/cm2, 50 µg/cm2 in data set [1] and in data set [2] was 50 to 100% throughout. In addition, the pest or weed control at 200 ppm in data set [3] lay in the range of 0 to 80%.
Regarding `Cc1ccc(N2/C(=N/N=C/c3ccc(-c4ncn(-c5ccc(OC(F)(F)F)cc5)n4)cc3)SCC2(C)O)c(C(C)C)c1` (stereo not drawn) [Compound 251C], the pest or weed control at 50 µg/cm2, 50 µg/cm2 in data set [1] and in data set [2] was 50 to 100% in each case. For the same compound, the pest or weed control at 200 ppm in data set [3] lay in the range of 0 to 80%.
In the case of `CCc1ccccc1N1/C(=N/N=C/c2ccc(-c3ncn(-c4ccc(OC(F)(F)F)cc4)n3)cc2)SCC1(C)O` (stereo not drawn) [Compound 254C], the pest or weed control at 50 µg/cm2, 50 µg/cm2 in data set [1] and in data set [2] was 50 to 100% in each case. Also, in data set [3], the pest or weed control at 200 ppm is 0 to 80%.
As to `CCCc1ccccc1N1/C(=N/N=C/c2ccc(-c3ncn(-c4ccc(OC(F)(F)F)cc4)n3)cc2)SCC1(C)O` (stereo not drawn) [Compound 256C], the pest or weed control at 50 µg/cm2, 50 µg/cm2 in data set [1] and in data set [2] was 50 to 100% in each case. For the same compound, the pest or weed control at 200 ppm in data set [3] lay in the range of 0 to 80%.
On to `CC(C)c1ccccc1N1/C(=N/N=C/c2ccc(-c3ncn(-c4ccc(OC(F)(F)C(F)(F)F)cc4)n3)cc2)SCC1(C)O` (stereo not drawn) [Compound 262C], for which the pest or weed control at 50 µg/cm2, 50 µg/cm2 in data set [1] and in data set [2] was 50 to 100% in each case. Also, the pest or weed control at 200 ppm in data set [3] is 0 to 80%.
For `CC(C)c1ccccc1N1/C(=N/N=C/c2ccc(-c3ncn(-c4ccc(OC(F)(F)F)cc4)n3)cc2)SCC1(O)c1ccccc1C(F)(F)F` (stereo not drawn) [Compound 263C], the pest or weed control at 50 µg/cm2, 50 µg/cm2 in data set [1] and in data set [2] was 50 to 100% each time. Further, the pest or weed control at 200 ppm in data set [3] lay within 0 to 80%.
`FC(F)(F)Oc1ccc(-n2cnc(-c3ccc(/C=N/NC(=S)Nc4ccccc4C4CCCC4)cc3)n2)cc1` [Compound I-35] registered a melting point of 213 to 216 °C.
Take `Cc1cccc(NC(=S)N/N=C/c2ccc(-c3ncn(-c4ccc(OC(F)(F)F)cc4)n3)cc2)c1C(C)C` [Compound I-43]: the melting point lay within 219 to 222 °C.
The same measure, in the same setting: with `Cc1ccc(C(C)C)c(NC(=S)NN)c1` [Compound I-46] the figure was 167 to 169 °C; with `CC(C)c1cc(F)ccc1NC(=S)NN` [Compound I-50], 163 to 167 °C; with `CC(C)c1cc(F)c(F)cc1NC(=S)NN` [Compound I-54], 169 to 170 °C.
Turning to `CC(C)c1cc(F)c(F)cc1NC(=S)N/N=C/c1ccc(-c2ncn(-c3ccc(OC(F)(F)F)cc3)n2)cc1` [Compound I-55], the melting point lay within 217 to 221 °C.

For orientation: melting point means the temperature of the solid-liquid transition.

Source of the values: patent US20160135464A1, “PESTICIDAL COMPOSITIONS AND PROCESSES RELATED THERETO” (Dow AgroSciences LLC, priority 2014, published 2016).
